Among the data in ChEMBL document CHEMBL1129193, “Isosteres of nucleoside triphosphates” (Bioorg Med Chem Lett, 1996) are EC50, IC50 and CC50 values, retold here.

The structures appear in SMILES notation.

In one experiment the test system is CEM-TK(-). The experiment in a line: Compound was evaluated for anti-HIV activity against HIV-2 infected CEM/TK- cell lines. Conditions: Homo sapiens.
Experiment [1] concerns C8166. The experiment in a line: Compound was evaluated for anti-HIV activity against HIV-1 infected C8166 cell lines. Conditions: Homo sapiens. It is filed as functional, cell-based.
Experiment [2] concerns the target Human immunodeficiency virus type 1 reverse transcriptase (Human immunodeficiency virus 1, UniProt Q72547). The experiment in a line: Inhibition of HIV-1 reverse transcriptase.
Experiment [3] deals with CCRF-CEM. The experiment in a line: Compound was evaluated for anti-HIV activity against HIV-1 infected CEM/0 cell lines. It counts as functional, cell-based. The following applies: Homo sapiens.
Experiment [4] deals with CCRF-CEM. The experiment in a line: Compound was evaluated for anti-HIV activity against HIV-2 infected CEM/0 cell lines. It is filed as functional, cell-based. The following applies: Homo sapiens.
Experiment [5] relates to C8166. The experiment in a line: Concentration of compound required to reduce viability of C8166 cells by 50%. It is filed as functional. Conditions: Homo sapiens.
Experiment [6] has as its system CCRF-CEM. The experiment in a line: Concentration of compound required to reduce viability of CEM/0 cells by 50%. It is filed as functional. Conditions: Homo sapiens.
The next experiment is filed under the species Homo sapiens. The experiment in a line: Compound was evaluated for anti-HIV activity against HIV-2 infected CEM/TK- cell lines. It is filed as functional, organism-based.

For orientation: EC50 means the concentration that produces a half-maximal response. A low value points to greater potency. One may read the IC50 as the concentration that gives 50% inhibition. What is called CC50 is the concentration that lowers cell viability or growth by half.

Turning to `Cc1cn(C2C=CC(COC(=O)CC(O)(CC(=O)OCc3ccccc3)C(=O)OCc3ccccc3)O2)c(=O)[nH]c1=O` (centres undefined), the EC50 with CEM-TK(-) came to 87 µM; in the experiment on C8166 [1], 1.6 µM; in the experiment with CCRF-CEM [3], 1.6 µM; in the experiment on CCRF-CEM [4] it was 0.55 µM. The IC50 in experiment [2] is > 100 µM. Besides, the CC50 in the experiment on C8166 [5] turned out to be 500 µM; in the experiment with CCRF-CEM [6], 64 µM.
For `Cc1cn(C2C=CC(COC(=O)CC(O)(CC(=O)O)C(=O)O)O2)c(=O)[nH]c1=O` (centres undefined), the EC50 in the experiment listed under Homo sapiens is > 250 µM; with C8166 [1], 3.2 µM; with CCRF-CEM [3], 4 µM; in the experiment with CCRF-CEM [4], 4 µM. In experiment [2], the IC50 was > 100 µM. Besides, the CC50 stood at 500 µM with C8166 [5] and 209 µM in the experiment with CCRF-CEM [6].
Turning to `Cc1cn(C2C=CC(CNC(=O)CC(O)(CC(=O)O)C(=O)O)O2)c(=O)[nH]c1=O` (centres undefined), the EC50 in the experiment with C8166 [1] was > 2500 µM. Besides, in experiment [2], the IC50 was > 100 µM. Also, the CC50 with C8166 [5] was > 2500 µM.
In the case of `C=CCOC(=O)CC(O)(CC(=O)NCC1C=CC(n2cc(C)c(=O)[nH]c2=O)O1)C(=O)OCC=C` (centres undefined), the EC50 is 400 µM with C8166 [1], > 250 µM with CCRF-CEM [3] and > 250 µM with CCRF-CEM [4]. Further, in experiment [2], the IC50 is > 100 µM. In addition, the CC50 is > 1000 µM in the experiment on C8166 [5] and > 250 µM in the experiment with CCRF-CEM [6].
Consider `COC(=O)CC(O)(CC(=O)NCC1C=CC(n2cc(C)c(=O)[nH]c2=O)O1)C(=O)OC` (centres undefined), for which the figures for the EC50 in the experiment with C8166 [1], with CCRF-CEM [3] and with CCRF-CEM [4] were 1000 µM, > 250 µM and > 250 µM, respectively. The half-maximal inhibitory concentration (IC50) in experiment [2] is > 100 µM. The CC50 was > 1000 µM in the experiment with C8166 [5] and > 250 µM with CCRF-CEM [6].
In the case of `COC(=O)CC1(CC(=O)OCC2C=CC(n3cc(C)c(=O)[nH]c3=O)O2)OCOC1=O` (centres undefined), the EC50 worked out at 110 µM with CEM-TK(-), 0.8 µM in the experiment with C8166 [1], 0.95 µM with CCRF-CEM [3] and 2.5 µM in the experiment with CCRF-CEM [4]. The IC50 in experiment [2] was > 100 µM. Also, the results for the CC50 in the experiment on C8166 [5] and in the experiment on CCRF-CEM [6] were 400 µM and 100 µM, respectively.
For `C=CCOC(=O)CC(O)(CC(=O)OCC1C=CC(n2cc(C)c(=O)[nH]c2=O)O1)C(=O)OCC=C` (centres undefined), the EC50 in the experiment on CEM-TK(-) is 72 µM; in the experiment with C8166 [1], 1 µM; in the experiment on CCRF-CEM [3], 0.7 µM; with CCRF-CEM [4], 0.55 µM. Moreover, the half-maximal inhibitory concentration (IC50) in experiment [2] was > 100 µM. For the same molecule, the CC50 in the experiment with C8166 [5] amounted to 500 µM; with CCRF-CEM [6] it was 69 µM.
In the case of `Cc1cn(C2C=CC(COC(=O)CC3(CC(=O)O)OCOC3=O)O2)c(=O)[nH]c1=O` (centres undefined), the EC50 in the experiment with CEM-TK(-) was > 250 µM; with C8166 [1], 4 µM; in the experiment with CCRF-CEM [3] it was 3.47 µM; in the experiment on CCRF-CEM [4], 4.5 µM. In addition, the IC50 in experiment [2] was > 100 µM. Moreover, the figures for the CC50 in the experiment on C8166 [5] and in the experiment on CCRF-CEM [6] were 1000 µM and > 250 µM, respectively.
Turning to `C=CCOC(=O)CC1(CC(=O)OCC2C=CC(n3cc(C)c(=O)[nH]c3=O)O2)OCOC1=O` (centres undefined), the EC50 came out at 78 µM in the experiment on CEM-TK(-), 0.8 µM with C8166 [1], 2 µM with CCRF-CEM [3] and 1.6 µM in the experiment with CCRF-CEM [4]. For the same molecule, the IC50 in experiment [2] is > 100 µM. Moreover, the values for the CC50 with C8166 [5] and with CCRF-CEM [6] were 500 µM and 179 µM, respectively.
In the case of `Cc1cn(C2C=CC(COC(=O)CC3(CC(=O)OCc4ccccc4)OCOC3=O)O2)c(=O)[nH]c1=O` (centres undefined), the EC50 in the experiment on CEM-TK(-) was > 250 µM; in the experiment with C8166 [1], 8 µM; in the experiment with CCRF-CEM [3], 1.35 µM; in the experiment with CCRF-CEM [4], 3 µM. Besides, the values for the CC50 in the experiment on C8166 [5] and in the experiment with CCRF-CEM [6] were 400 µM and 92.8 µM, respectively.
With `Cc1cn([C@H]2C[C@H](N=[N+]=[N-])[C@@H](CO)O2)c(=O)[nH]c1=O` [ZIDOVUDINE], the EC50 was > 250 µM with CEM-TK(-), 0.016 µM with C8166 [1] and 0.006 µM in the experiment on CCRF-CEM [4]. For the same molecule, in experiment [2], the IC50 was > 100 µM. Moreover, the CC50 was > 1000 µM in the experiment on C8166 [5] and > 250 µM with CCRF-CEM [6].
